# Data taken from publication PMC12649549, “Sequence Permutation Generated Lysine and Tryptophan-Rich Antimicrobial Peptides with Enhanced Therapeutic Index” (Antibiotics, 2025).
# System: S. aureus ATCC 33592
# Conditions: LYM broth, 0 mM NaCl; 16 h, 37 °C
# Method: (§1) The antibacterial and salt-resistant activity of the peptides was tested using Escherichia coli (ATCC 25922), Pseudomonas aeruginosa Migula (ATCC 27853), Acinetobacter sp. (BCRC number 14B0091, BCRC number 14B0097, and BCRC number 14B0100), and Staphylococcus aureus sp. strains (ATCC 25923, ATCC 33591, ATCC 33592, ATCC 33593, and ATCC 6538). All bacteria were obtained from the Food Industry Research and Development Institute (Hsinchu, Taiwan) and cultured in sterilized Müller-Hinton (MH) broth at 37 °C and 200 rpm for 8 h. The inoculum concentrations were determined by measuring the optical density at 600 nm (OD 600 = 1, approximately 10^8 CFU/mL) using an Ultrospec 2100 pro UV-Visible spectrophotometer (Biochrom Ltd., Cambridge, UK) after 8 h of culture.
# The antibacterial activities of the peptides in Müller-Hinton (MH) broth and modified LYM broth were determined using the standard broth microdilution method as per Clinical and Laboratory Standards Institute (CLSI) guidelines. The LYM broth was prepared with specific components and adjusted to different conditions, including varying concentrations of NaCl and MgCl2, and different pH levels. To prepare the LYM broth, 5.4 mM KCl, 5.6 mM Na2HPO4, 0.5 mM MgSO4, and 1.0 mM sodium citrate were added. Additionally, 0.4 mg of ZnCl2, 2.0 mg of FeCl3·6H2O, 0.1 mg of CuSO4·5H2O, 0.1 mg of MnSO4·H2O, 0.1 mg of Na2B4O7∙10H2O, 700 mg of amino acid mixtures without tryptophan (Takara Bio Inc., San Jose, CA, USA), and 20 mg of L-tryptophan were added per liter of medium. The pH was adjusted to 7.4, and a vitamin mixture (100X, Sigma) and glucose concentration of 2% were added. […] Bacterial strains were incubated in MH broth overnight, regrown, and diluted to a final concentration of 5 × 10^5 CFU/mL. Peptides were added to each well at final concentrations of 50, 25, 12.5, 6.25, 3.13, 1.56, and 0.78 µg/mL, and 99 µL of diluted microbes was loaded into each well of a polypropylene 96-well plate. […] The Morpheus HeatMap software (https://software.broadinstitute.org/morpheus/) was used to display MIC values on a color scale. All experiments were independently repeated three times.
row,Substance,MIC [µg/mL]
1,Ac-KWRKWLKWLAKKK-NH2 [Peptide W5K01],6.25

# Same assay, conditions: LYM broth, 0.5 mM MgCl2
row,Substance,MIC [µg/mL]
1,Ac-KWRKWLKWLAKKK-NH2 [Peptide W5K01],6.25

# Same assay, conditions: LYM broth, 1.5 mM MgCl2
row,Substance,MIC [µg/mL]
1,Ac-KWRKWLKWLAKKK-NH2 [Peptide W5K01],6.25

# Same assay, conditions: LYM broth, 2.5 mM MgCl2
row,Substance,MIC [µg/mL]
1,Ac-KWRKWLKWLAKKK-NH2 [Peptide W5K01],12.5

# Same assay, conditions: LYM broth, 50 mM NaCl; 16 h, 37 °C
row,Substance,MIC [µg/mL]
1,Ac-KWRKWLKWLAKKK-NH2 [Peptide W5K01],6.25

# Same assay, conditions: LYM broth, 100 mM NaCl; 16 h, 37 °C
row,Substance,MIC [µg/mL]
1,Ac-KWRKWLKWLAKKK-NH2 [Peptide W5K01],12.5

# Same assay, conditions: LYM broth, 200 mM (NaCl); 16 h, 37 °C
row,Substance,MIC [µg/mL]
1,Ac-KWRKWLKWLAKKK-NH2 [Peptide W5K01],25

# Same assay, conditions: LYM broth, 300 mM (NaCl); 16 h, 37 °C
row,Substance,MIC [µg/mL]
1,Ac-KWRKWLKWLAKKK-NH2 [Peptide W5K01],50

# Same assay, conditions: LYM broth, pH 4.5
row,Substance,MIC [µg/mL]
1,Ac-KWRKWLKWLAKKK-NH2 [Peptide W5K01],6.25

# Same assay, conditions: LYM broth, pH 5.5
row,Substance,MIC [µg/mL]
1,Ac-KWRKWLKWLAKKK-NH2 [Peptide W5K01],6.25

# Same assay, conditions: LYM broth, pH 6.5
row,Substance,MIC [µg/mL]
1,Ac-KWRKWLKWLAKKK-NH2 [Peptide W5K01],6.25

# Same assay, conditions: MH broth; 5 × 10^5 CFU/mL, 16 h, 37 °C; repeated three times
row,Substance,MIC [µg/mL]
1,Ac-KWRKWLKWLAKKK-NH2 [Peptide W5K01],50

# System: A. baumannii 14B00100 (Acinetobacter sp., BCRC number 14B0100)
# Conditions: LYM broth, 0 mM NaCl; 16 h, 37 °C
# Method: as §1
# (§2) The antibacterial activities of the peptides in Müller-Hinton (MH) broth and modified LYM broth were determined using the standard broth microdilution method as per Clinical and Laboratory Standards Institute (CLSI) guidelines. The LYM broth was prepared with specific components and adjusted to different conditions, including varying concentrations of NaCl and MgCl2, and different pH levels. To prepare the LYM broth, 5.4 mM KCl, 5.6 mM Na2HPO4, 0.5 mM MgSO4, and 1.0 mM sodium citrate were added. Additionally, 0.4 mg of ZnCl2, 2.0 mg of FeCl3·6H2O, 0.1 mg of CuSO4·5H2O, 0.1 mg of MnSO4·H2O, 0.1 mg of Na2B4O7∙10H2O, 700 mg of amino acid mixtures without tryptophan (Takara Bio Inc., San Jose, CA, USA), and 20 mg of L-tryptophan were added per liter of medium. The pH was adjusted to 7.4, and a vitamin mixture (100X, Sigma) and glucose concentration of 2% were added. For different conditions of LYM broth, NaCl concentrations of 300, 200, 150, and 50 mM, MgCl2 concentrations of 2.5, 1.5, and 0.5 mM, and pH levels of 6.5, 5.5, and 4.5 were adjusted. Bacterial strains were incubated in MH broth overnight, regrown, and diluted to a final concentration of 5 × 10^5 CFU/mL. Peptides were added to each well at final concentrations of 50, 25, 12.5, 6.25, 3.13, 1.56, and 0.78 µg/mL, and 99 µL of diluted microbes was loaded into each well of a polypropylene 96-well plate. […] The Morpheus HeatMap software (https://software.broadinstitute.org/morpheus/) was used to display MIC values on a color scale. All experiments were independently repeated three times.
row,Substance,MIC [µg/mL]
1,Ac-KWRKWLKWLAKKK-NH2 [Peptide W5K01],1.56

# Same assay, conditions: LYM broth, 0.5 mM MgCl2
row,Substance,MIC [µg/mL]
1,Ac-KWRKWLKWLAKKK-NH2 [Peptide W5K01],1.56

# Same assay, conditions: LYM broth, 1.5 mM MgCl2
row,Substance,MIC [µg/mL]
1,Ac-KWRKWLKWLAKKK-NH2 [Peptide W5K01],1.56

# Same assay, conditions: LYM broth, 2.5 mM MgCl2
row,Substance,MIC [µg/mL]
1,Ac-KWRKWLKWLAKKK-NH2 [Peptide W5K01],3.13

# Same assay, conditions: LYM broth, 50 mM NaCl; 16 h, 37 °C
row,Substance,MIC [µg/mL]
1,Ac-KWRKWLKWLAKKK-NH2 [Peptide W5K01],1.56

# Same assay, conditions: LYM broth, 100 mM NaCl; 16 h, 37 °C
row,Substance,MIC [µg/mL]
1,Ac-KWRKWLKWLAKKK-NH2 [Peptide W5K01],3.13

# Same assay, conditions: LYM broth, 200 mM (NaCl); 16 h, 37 °C
row,Substance,MIC [µg/mL]
1,Ac-KWRKWLKWLAKKK-NH2 [Peptide W5K01],3.13

# Same assay, conditions: LYM broth, 300 mM (NaCl); 16 h, 37 °C
row,Substance,MIC [µg/mL]
1,Ac-KWRKWLKWLAKKK-NH2 [Peptide W5K01],6.25

# Same assay, conditions: LYM broth, pH 4.5
row,Substance,MIC [µg/mL]
1,Ac-KWRKWLKWLAKKK-NH2 [Peptide W5K01],1.56

# Same assay, conditions: LYM broth, pH 5.5
row,Substance,MIC [µg/mL]
1,Ac-KWRKWLKWLAKKK-NH2 [Peptide W5K01],1.56

# Same assay, conditions: LYM broth, pH 6.5
row,Substance,MIC [µg/mL]
1,Ac-KWRKWLKWLAKKK-NH2 [Peptide W5K01],1.56

# Same assay, conditions: MH broth; 5 × 10^5 CFU/mL, 16 h, 37 °C; repeated three times
row,Substance,MIC [µg/mL]
1,Ac-KWRKWLKWLAKKK-NH2 [Peptide W5K01],6.25

# System: Pseudomonas aeruginosa Migula (ATCC 27853)
# Conditions: LYM broth, 0 mM NaCl; 16 h, 37 °C
# Method: as §1, §2
row,Substance,MIC [µg/mL]
1,Ac-KWRKWLKWLAKKK-NH2 [Peptide W5K01],3.13
